Laboratory results as given in the kinase profiling compilation of Christmann-Franck et al. (2016).

Key:
Assay in all cases: KINOMEscan competition binding
Settings in all cases: compound 10.0 µM
[1] = test system: ABL1 (human), P00519 [M351T]
BMPR2 (human) = BMPR2 (human) (UniProt Q13873)
CAMK1D (human) = CAMK1D (human) (UniProt Q8IU85)
CAMK2A (human) = CAMK2A (human) (UniProt Q9UQM7)
CDK8 (human) = CDK8 (human) (UniProt P49336)
CHEK2 (human) = CHEK2 (human) (UniProt O96017)
EGFR (human) = EGFR (human) (UniProt P00533)
[2] = test system: EGFR (human), P00533 [747-751 del / S ins]
EPHA6 (human) = EPHA6 (human) (UniProt Q9UF33)
FER (human) = FER (human) (UniProt P16591)
Chain of FER (human) (P16591 whole entry, looked up): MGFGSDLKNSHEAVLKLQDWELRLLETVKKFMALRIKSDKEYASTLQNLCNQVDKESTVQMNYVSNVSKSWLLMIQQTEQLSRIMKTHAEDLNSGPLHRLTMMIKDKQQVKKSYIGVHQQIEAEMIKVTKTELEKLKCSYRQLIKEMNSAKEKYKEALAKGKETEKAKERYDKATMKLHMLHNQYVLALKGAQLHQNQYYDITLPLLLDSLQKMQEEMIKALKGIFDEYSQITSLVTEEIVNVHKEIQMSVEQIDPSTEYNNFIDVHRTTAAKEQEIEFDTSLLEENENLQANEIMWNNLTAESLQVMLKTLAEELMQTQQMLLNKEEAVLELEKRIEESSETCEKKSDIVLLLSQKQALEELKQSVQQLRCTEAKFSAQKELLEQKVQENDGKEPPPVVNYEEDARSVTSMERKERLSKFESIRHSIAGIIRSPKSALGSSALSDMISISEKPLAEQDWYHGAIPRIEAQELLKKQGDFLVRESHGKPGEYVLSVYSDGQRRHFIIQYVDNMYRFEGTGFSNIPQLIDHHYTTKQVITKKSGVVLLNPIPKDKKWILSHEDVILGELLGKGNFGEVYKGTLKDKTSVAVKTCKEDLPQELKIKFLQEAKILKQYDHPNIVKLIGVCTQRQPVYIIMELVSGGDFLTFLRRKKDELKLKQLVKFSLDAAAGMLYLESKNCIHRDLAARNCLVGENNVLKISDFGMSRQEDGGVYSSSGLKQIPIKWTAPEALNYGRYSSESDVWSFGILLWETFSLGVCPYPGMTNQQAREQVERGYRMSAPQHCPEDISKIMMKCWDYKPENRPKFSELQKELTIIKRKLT

FES (human) = FES (human) (UniProt P07332)
FGFR3 (human) = FGFR3 (human) (UniProt P22607)
Chain of FGFR3 (human) (P22607 whole entry, looked up): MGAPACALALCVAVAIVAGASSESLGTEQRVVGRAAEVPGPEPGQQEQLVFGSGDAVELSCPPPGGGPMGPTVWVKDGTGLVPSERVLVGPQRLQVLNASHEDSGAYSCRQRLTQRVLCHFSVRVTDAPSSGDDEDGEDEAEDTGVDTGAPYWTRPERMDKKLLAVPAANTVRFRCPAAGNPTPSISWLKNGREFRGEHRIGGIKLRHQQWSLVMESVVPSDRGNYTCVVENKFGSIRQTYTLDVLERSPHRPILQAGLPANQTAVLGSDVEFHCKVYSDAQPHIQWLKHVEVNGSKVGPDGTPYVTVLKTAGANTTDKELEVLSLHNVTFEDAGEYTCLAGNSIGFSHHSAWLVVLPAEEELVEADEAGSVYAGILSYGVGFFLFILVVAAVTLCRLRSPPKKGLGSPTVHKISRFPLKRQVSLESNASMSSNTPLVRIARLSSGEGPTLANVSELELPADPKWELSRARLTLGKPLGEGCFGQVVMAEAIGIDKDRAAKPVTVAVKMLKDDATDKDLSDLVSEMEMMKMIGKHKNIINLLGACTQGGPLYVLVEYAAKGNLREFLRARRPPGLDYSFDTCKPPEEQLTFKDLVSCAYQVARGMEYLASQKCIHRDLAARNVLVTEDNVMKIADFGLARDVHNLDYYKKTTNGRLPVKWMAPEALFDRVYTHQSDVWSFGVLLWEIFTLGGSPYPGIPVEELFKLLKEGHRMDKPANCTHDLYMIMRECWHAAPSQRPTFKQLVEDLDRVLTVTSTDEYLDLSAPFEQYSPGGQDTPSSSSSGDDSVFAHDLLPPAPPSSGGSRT

IKBKB (human) = IKBKB (human) (UniProt O14920)
Chain of IKBKB (human) (O14920 whole entry, looked up): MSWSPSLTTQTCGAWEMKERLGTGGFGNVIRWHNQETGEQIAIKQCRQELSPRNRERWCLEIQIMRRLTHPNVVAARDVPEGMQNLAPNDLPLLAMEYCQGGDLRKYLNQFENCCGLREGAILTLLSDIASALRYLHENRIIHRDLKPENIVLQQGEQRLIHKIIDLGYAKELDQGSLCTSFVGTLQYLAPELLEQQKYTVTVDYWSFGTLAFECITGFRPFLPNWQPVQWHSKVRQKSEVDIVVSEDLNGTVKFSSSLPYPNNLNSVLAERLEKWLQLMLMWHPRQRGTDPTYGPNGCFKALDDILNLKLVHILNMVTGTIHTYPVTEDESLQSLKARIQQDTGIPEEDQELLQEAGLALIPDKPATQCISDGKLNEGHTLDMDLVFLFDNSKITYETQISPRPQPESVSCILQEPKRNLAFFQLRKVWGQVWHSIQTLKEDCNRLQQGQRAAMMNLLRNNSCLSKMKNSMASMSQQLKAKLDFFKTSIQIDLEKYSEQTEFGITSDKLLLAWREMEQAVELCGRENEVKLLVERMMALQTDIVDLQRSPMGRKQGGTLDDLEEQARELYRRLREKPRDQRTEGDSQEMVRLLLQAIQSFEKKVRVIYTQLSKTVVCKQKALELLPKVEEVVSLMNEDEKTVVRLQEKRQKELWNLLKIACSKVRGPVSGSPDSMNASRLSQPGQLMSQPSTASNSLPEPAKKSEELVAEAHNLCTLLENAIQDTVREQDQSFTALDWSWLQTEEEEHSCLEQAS

INSR (human) = INSR (human) (UniProt P06213)
Chain of INSR (human) (P06213 whole entry, looked up): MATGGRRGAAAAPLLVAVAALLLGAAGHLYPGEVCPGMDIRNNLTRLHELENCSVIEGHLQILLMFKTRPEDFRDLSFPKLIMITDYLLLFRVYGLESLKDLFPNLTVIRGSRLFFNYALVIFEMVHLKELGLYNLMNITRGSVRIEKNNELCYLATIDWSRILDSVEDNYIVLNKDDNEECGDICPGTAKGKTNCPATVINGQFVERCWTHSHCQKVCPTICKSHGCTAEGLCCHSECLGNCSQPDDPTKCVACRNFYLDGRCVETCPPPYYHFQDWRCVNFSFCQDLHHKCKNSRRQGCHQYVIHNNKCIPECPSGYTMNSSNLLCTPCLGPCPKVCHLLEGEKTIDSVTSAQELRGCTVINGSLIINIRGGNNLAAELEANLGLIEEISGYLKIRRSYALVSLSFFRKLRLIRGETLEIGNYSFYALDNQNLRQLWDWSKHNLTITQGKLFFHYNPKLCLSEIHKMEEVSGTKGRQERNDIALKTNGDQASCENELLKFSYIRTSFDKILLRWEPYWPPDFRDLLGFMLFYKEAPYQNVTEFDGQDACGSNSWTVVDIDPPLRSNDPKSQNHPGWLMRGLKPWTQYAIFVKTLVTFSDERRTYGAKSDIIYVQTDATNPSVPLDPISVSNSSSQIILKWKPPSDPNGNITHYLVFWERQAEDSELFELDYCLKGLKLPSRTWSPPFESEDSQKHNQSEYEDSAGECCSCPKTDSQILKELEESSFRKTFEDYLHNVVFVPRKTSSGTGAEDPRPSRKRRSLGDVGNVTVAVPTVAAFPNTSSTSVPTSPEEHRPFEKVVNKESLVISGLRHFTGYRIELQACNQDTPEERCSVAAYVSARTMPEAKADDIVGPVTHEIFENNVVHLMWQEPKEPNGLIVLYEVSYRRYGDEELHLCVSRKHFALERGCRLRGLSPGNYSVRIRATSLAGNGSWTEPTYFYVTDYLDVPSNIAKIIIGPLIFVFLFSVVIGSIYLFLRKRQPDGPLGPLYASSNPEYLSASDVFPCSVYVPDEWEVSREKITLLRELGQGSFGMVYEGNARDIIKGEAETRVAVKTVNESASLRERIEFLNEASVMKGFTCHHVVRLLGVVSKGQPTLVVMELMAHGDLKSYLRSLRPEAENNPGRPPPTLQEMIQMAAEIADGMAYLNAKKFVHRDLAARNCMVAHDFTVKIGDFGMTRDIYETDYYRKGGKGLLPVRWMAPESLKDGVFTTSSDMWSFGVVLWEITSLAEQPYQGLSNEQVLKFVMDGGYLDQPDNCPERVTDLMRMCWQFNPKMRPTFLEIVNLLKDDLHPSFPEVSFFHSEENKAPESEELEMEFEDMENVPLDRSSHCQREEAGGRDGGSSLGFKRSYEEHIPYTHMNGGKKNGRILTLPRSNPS

[3] = test system: KIT (human), P10721 [D816V]
[4] = test system: KIT (human), P10721 [V559D/V654A]
LCK (human) = LCK (human) (UniProt P06239)
LIMK1 (human) = LIMK1 (human) (UniProt P53667)
LYN (human) = LYN (human) (UniProt P07948)
MAP3K3 (human) = MAP3K3 (human) (UniProt Q99759)
MAP4K2 (human) = MAP4K2 (human) (UniProt Q12851)
MAPK12 (human) = MAPK12 (human) (UniProt P53778)
MAPK14 (human) = MAPK14 (human) (UniProt Q16539)
MAPK4 (human) = MAPK4 (human) (UniProt P31152)
MKNK2 (human) = MKNK2 (human) (UniProt Q9HBH9)
Chain of MKNK2 (human) (Q9HBH9 whole entry, looked up): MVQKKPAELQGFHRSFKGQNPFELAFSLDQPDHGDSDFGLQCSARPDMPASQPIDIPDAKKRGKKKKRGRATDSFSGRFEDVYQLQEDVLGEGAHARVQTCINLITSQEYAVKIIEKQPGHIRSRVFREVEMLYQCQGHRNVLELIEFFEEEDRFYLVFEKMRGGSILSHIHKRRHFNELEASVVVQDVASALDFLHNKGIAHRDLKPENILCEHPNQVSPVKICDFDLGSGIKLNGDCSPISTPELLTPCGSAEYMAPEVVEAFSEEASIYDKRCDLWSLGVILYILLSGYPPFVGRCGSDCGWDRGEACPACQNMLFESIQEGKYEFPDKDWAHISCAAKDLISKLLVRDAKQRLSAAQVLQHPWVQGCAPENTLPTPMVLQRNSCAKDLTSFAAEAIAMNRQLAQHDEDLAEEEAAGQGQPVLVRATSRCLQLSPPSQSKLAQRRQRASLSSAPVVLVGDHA

MLTK (human) = MLTK (human) (UniProt Q9NYL2)
MST4 (human) = MST4 (human) (UniProt Q9P289)
MUSK (human) = MUSK (human) (UniProt O15146)
Chain of MUSK (human) (O15146 whole entry, looked up): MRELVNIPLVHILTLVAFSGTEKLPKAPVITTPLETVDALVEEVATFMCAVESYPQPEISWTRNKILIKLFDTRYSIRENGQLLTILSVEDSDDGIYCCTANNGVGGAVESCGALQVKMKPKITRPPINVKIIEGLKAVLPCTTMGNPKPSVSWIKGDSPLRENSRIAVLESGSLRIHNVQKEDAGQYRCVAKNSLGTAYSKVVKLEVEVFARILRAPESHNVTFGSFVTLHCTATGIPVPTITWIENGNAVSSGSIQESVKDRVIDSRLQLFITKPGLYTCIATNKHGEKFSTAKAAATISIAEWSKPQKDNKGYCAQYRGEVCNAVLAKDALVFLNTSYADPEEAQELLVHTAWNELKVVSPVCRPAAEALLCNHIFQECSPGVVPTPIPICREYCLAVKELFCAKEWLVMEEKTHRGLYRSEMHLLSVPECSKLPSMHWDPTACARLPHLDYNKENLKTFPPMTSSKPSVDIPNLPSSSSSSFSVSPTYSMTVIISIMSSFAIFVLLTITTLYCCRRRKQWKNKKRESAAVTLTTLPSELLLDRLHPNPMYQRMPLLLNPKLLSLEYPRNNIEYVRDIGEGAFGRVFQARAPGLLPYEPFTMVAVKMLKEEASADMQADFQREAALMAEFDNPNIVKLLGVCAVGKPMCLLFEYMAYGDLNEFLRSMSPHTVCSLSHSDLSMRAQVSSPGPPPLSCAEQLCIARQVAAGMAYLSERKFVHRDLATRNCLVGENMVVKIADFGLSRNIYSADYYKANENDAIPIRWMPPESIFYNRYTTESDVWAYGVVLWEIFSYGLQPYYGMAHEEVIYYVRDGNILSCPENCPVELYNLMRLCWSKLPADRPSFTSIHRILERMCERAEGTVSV

NEK5 (human) = NEK5 (human) (UniProt Q6P3R8)
NEK7 (human) = NEK7 (human) (UniProt Q8TDX7)
PAK4 (human) = PAK4 (human) (UniProt O96013)
PIK3CG (human) = PIK3CG (human) (UniProt P48736)
PRKD1 (human) = PRKD1 (human) (UniProt Q15139)
[5] = test system: RET (human), P07949 [M918T]
ROS1 (human) = ROS1 (human) (UniProt P08922)
SRPK2 (human) = SRPK2 (human) (UniProt P78362)
TESK1 (human) = TESK1 (human) (UniProt Q15569)
TGFBR1 (human) = TGFBR1 (human) (UniProt P36897)
TGFBR2 (human) = TGFBR2 (human) (UniProt P37173)
TLK2 (human) = TLK2 (human) (UniProt Q86UE8)
TNK1 (human) = TNK1 (human) (UniProt Q13470)
WEE2 (human) = WEE2 (human) (UniProt P0C1S8)

## CCN1CCN(Cc2ccc(NC(=O)c3ccc(C)c(/C=C/c4cnc(Nc5cc(N6CCNCC6)nc(C)n5)cn4)c3)cc2C(F)(F)F)CC1
[1]
  kinase still bound, per cent of control: 3.8%
BMPR2 (human)
  kinase still bound, per cent of control: 100%
CAMK1D (human)
  kinase still bound, per cent of control: 100%
CAMK2A (human)
  kinase still bound, per cent of control: 100%
CDK8 (human)
  kinase still bound, per cent of control: 3.6%
CHEK2 (human)
  kinase still bound, per cent of control: 83%
EGFR (human)
  kinase still bound, per cent of control: 12%
[2]
  kinase still bound, per cent of control: 4.6%
EPHA6 (human)
  kinase still bound, per cent of control: 51%
FER (human)
  kinase still bound, per cent of control: 78%
FES (human)
  kinase still bound, per cent of control: 9.4%
FGFR3 (human)
  kinase still bound, per cent of control: 12%
IKBKB (human)
  kinase still bound, per cent of control: 0.95%
INSR (human)
  kinase still bound, per cent of control: 65%
[3]
  kinase still bound, per cent of control: 25%
[4]
  kinase still bound, per cent of control: 3.7%
LCK (human)
  kinase still bound, per cent of control: 0.45%
LIMK1 (human)
  kinase still bound, per cent of control: 15%
LYN (human)
  kinase still bound, per cent of control: 1%
MAP3K3 (human)
  kinase still bound, per cent of control: 0.3%
MAP4K2 (human)
  kinase still bound, per cent of control: 0.1%
MAPK12 (human)
  kinase still bound, per cent of control: 39%
MAPK14 (human)
  kinase still bound, per cent of control: 4.6%
MAPK4 (human)
  kinase still bound, per cent of control: 100%
MKNK2 (human)
  kinase still bound, per cent of control: 18%
MLTK (human)
  kinase still bound, per cent of control: 1.2%
MST4 (human)
  kinase still bound, per cent of control: 4.6%
MUSK (human)
  kinase still bound, per cent of control: 5.2%
NEK5 (human)
  kinase still bound, per cent of control: 49%
NEK7 (human)
  kinase still bound, per cent of control: 100%
PAK4 (human)
  kinase still bound, per cent of control: 100%
PIK3CG (human)
  kinase still bound, per cent of control: 100%
PRKD1 (human)
  kinase still bound, per cent of control: 90%
[5]
  kinase still bound, per cent of control: 0.2%
ROS1 (human)
  kinase still bound, per cent of control: 100%
SRPK2 (human)
  kinase still bound, per cent of control: 100%
TESK1 (human)
  kinase still bound, per cent of control: 23%
TGFBR1 (human)
  kinase still bound, per cent of control: 99%
TGFBR2 (human)
  kinase still bound, per cent of control: 54%
TLK2 (human)
  kinase still bound, per cent of control: 100%
TNK1 (human)
  kinase still bound, per cent of control: 13%
WEE2 (human)
  kinase still bound, per cent of control: 83%

## CCN1CCN(Cc2ccc(NC(=O)c3ccc(C)c(Oc4ccnc5[nH]ccc45)c3)cc2C(F)(F)F)CC1
[1]
  kinase still bound, per cent of control: 0.35%
CAMK1D (human)
  kinase still bound, per cent of control: 6.2%
CDK8 (human)
  kinase still bound, per cent of control: 3.9%
EGFR (human)
  kinase still bound, per cent of control: 5.6%
[2]
  kinase still bound, per cent of control: 1.1%
FER (human)
  kinase still bound, per cent of control: 0.5%
FES (human)
  kinase still bound, per cent of control: 2.2%
FGFR3 (human)
  kinase still bound, per cent of control: 9.4%
IKBKB (human)
  kinase still bound, per cent of control: 24%
INSR (human)
  kinase still bound, per cent of control: 30%
[4]
  kinase still bound, per cent of control: 2.7%
LCK (human)
  kinase still bound, per cent of control: 0.8%
LYN (human)
  kinase still bound, per cent of control: 0.75%
MAP3K3 (human)
  kinase still bound, per cent of control: 12%
MAP4K2 (human)
  kinase still bound, per cent of control: 0.3%
MAPK12 (human)
  kinase still bound, per cent of control: 0%
MAPK14 (human)
  kinase still bound, per cent of control: 0%
MKNK2 (human)
  kinase still bound, per cent of control: 4.2%
MLTK (human)
  kinase still bound, per cent of control: 0.35%
MUSK (human)
  kinase still bound, per cent of control: 0.2%
[5]
  kinase still bound, per cent of control: 0%
TNK1 (human)
  kinase still bound, per cent of control: 0.35%

## COc1cc(N2CCC(N3CCN(C)CC3)CC2)ccc1Nc1ncc(Cl)c(Nc2ccccc2S(=O)(=O)C(C)C)n1
[1]
  kinase still bound, per cent of control: 5%
BMPR2 (human)
  kinase still bound, per cent of control: 40%
CAMK2A (human)
  kinase still bound, per cent of control: 1.2%
CDK8 (human)
  kinase still bound, per cent of control: 40%
CHEK2 (human)
  kinase still bound, per cent of control: 0%
EGFR (human)
  kinase still bound, per cent of control: 0.1%
[2]
  kinase still bound, per cent of control: 0.6%
EPHA6 (human)
  kinase still bound, per cent of control: 3.1%
FER (human)
  kinase still bound, per cent of control: 0.05%
FGFR3 (human)
  kinase still bound, per cent of control: 2.6%
IKBKB (human)
  kinase still bound, per cent of control: 40%
INSR (human)
  kinase still bound, per cent of control: 0%
[3]
  kinase still bound, per cent of control: 3.1%
[4]
  kinase still bound, per cent of control: 7.4%
LCK (human)
  kinase still bound, per cent of control: 0.1%
LIMK1 (human)
  kinase still bound, per cent of control: 2.2%
LYN (human)
  kinase still bound, per cent of control: 5%
MAP3K3 (human)
  kinase still bound, per cent of control: 2.8%
MAP4K2 (human)
  kinase still bound, per cent of control: 9.4%
MAPK12 (human)
  kinase still bound, per cent of control: 40%
MAPK14 (human)
  kinase still bound, per cent of control: 40%
MAPK4 (human)
  kinase still bound, per cent of control: 40%
MKNK2 (human)
  kinase still bound, per cent of control: 1.4%
MLTK (human)
  kinase still bound, per cent of control: 40%
MST4 (human)
  kinase still bound, per cent of control: 27%
MUSK (human)
  kinase still bound, per cent of control: 0.35%
NEK5 (human)
  kinase still bound, per cent of control: 40%
NEK7 (human)
  kinase still bound, per cent of control: 3.8%
PAK4 (human)
  kinase still bound, per cent of control: 9.6%
PIK3CG (human)
  kinase still bound, per cent of control: 40%
PRKD1 (human)
  kinase still bound, per cent of control: 1%
ROS1 (human)
  kinase still bound, per cent of control: 0.45%
SRPK2 (human)
  kinase still bound, per cent of control: 12%
TESK1 (human)
  kinase still bound, per cent of control: 40%
TGFBR1 (human)
  kinase still bound, per cent of control: 0.2%
TGFBR2 (human)
  kinase still bound, per cent of control: 2.7%
TLK2 (human)
  kinase still bound, per cent of control: 40%
TNK1 (human)
  kinase still bound, per cent of control: 0.45%
WEE2 (human)
  kinase still bound, per cent of control: 40%
